Molecules are shown by their SMILES.

System in the first data set: not listed separately
Nature of the data set: in vitro. The note with it: human, HEp-2 cells.
Compound `C[C@H](NP(=O)(OC[C@H]1O[C@@](C#N)(c2ccc3c(N)ncnn23)[C@H](O)[C@@H]1O)Oc1ccccc1)C(=O)OC(C)(C)C` (stereo partly drawn) showed a CC50 greater than 100000 nM.
Consider `C[C@H](NP(=O)(OC[C@H]1O[C@@](C#N)(c2ccc3c(N)ncnn23)[C@H](O)[C@@H]1O)Oc1ccccc1)C(=O)OCC(C)(C)C` (stereo partly drawn), for which the CC50 turned out to be 11000 nM. This lies in the double-digit micromolar range.
With `Nc1ncnn2c([C@@H]3O[C@H](CO)[C@@H](O)[C@H]3O)ccc12`, the CC50 is 36 nM.
The same measure, in the same setting: with `CCOC(=O)[C@H](C)NP(=O)(N[C@@H](C)C(=O)OCC)OC[C@H]1O[C@@](C#N)(c2ccc3c(N)ncnn23)[C@H](O)[C@@H]1O` the figure was greater than 100000 nM; with `CCC(=O)OC[C@H]1O[C@@](C#N)(c2ccc3c(N)ncnn23)[C@H](OC(=O)CC)[C@@H]1OC(=O)CC`, greater than 100000 nM.
`CC(C)(C)C(=O)SCCOP(=O)(OCCSC(=O)C(C)(C)C)OC[C@H]1O[C@@](C#N)(c2ccc3c(N)ncnn23)[C@H](O)[C@@H]1O` registered a CC50 of 8700 nM. This lies in the single-digit micromolar range.
Take `CCOC(=O)[C@H](C)NP(=O)(OC[C@H]1O[C@@](C#N)(c2ccc3c(N)ncnn23)[C@H](O)[C@@H]1O)Oc1ccccc1` (stereo partly drawn): the CC50 is greater than 73000 nM.
For `CCC(CC)OC(=O)[C@H](C)NP(=O)(OC[C@H]1O[C@@](C#N)(c2ccc3c(N)ncnn23)[C@H](O)[C@@H]1O)Oc1ccccc1` (stereo partly drawn), the CC50 is greater than 100000 nM.
Still for that read-out and setting: the value for `CC(C)OC(=O)[C@H](C)NP(=O)(OC[C@H]1O[C@@](C#N)(c2ccc3c(N)ncnn23)[C@H](O)[C@@H]1O)Oc1ccccc1` (stereo partly drawn) was greater than 100000 nM; that for `C[C@H](NP(=O)(OC[C@H]1O[C@@](C#N)(c2ccc3c(N)ncnn23)[C@H](O)[C@@H]1O)Oc1ccccc1)C(=O)OC1CCC1` (stereo partly drawn) was 34000 nM; that for `C#C[C@@]1(c2ccc3c(N)ncnn23)O[C@H](CO)[C@@H](O)[C@H]1O` was greater than 100000 nM.

System in another data set: not listed separately
As to the kind of experiment: in vitro. As to conditions: human, Huh-7 cells.
As to `C[C@@]1(c2ccc3c(N)ncnn23)O[C@H](CO)[C@@H](O)[C@H]1O`, the CC50 at 72 h was greater than 45000 nM.
In turn, `C#C[C@@]1(c2ccc3c(N)ncnn23)O[C@H](CO)[C@@H](O)[C@H]1O` displayed a CC50 at 72 h greater than 89000 nM.

System in the next data set: not listed separately
Nature of the data set: in vitro. As to conditions: human, MT4 cells.
`C[C@@]1(c2ccc3c(N)ncnn23)O[C@H](CO)[C@@H](O)[C@H]1O` had a CC50 at 120 h of 4500 nM. This lies in the single-digit micromolar range.
Still for that read-out and setting: the value for `Nc1ncnn2c([C@@H]3O[C@H](CO)[C@@H](O)[C@H]3O)ccc12` was less than 10 nM.
Still for that read-out and setting: with `C#C[C@@]1(c2ccc3c(N)ncnn23)O[C@H](CO)[C@@H](O)[C@H]1O` the figure was greater than 50000 nM.

System in a further data set: not listed separately
As to the kind of experiment: in vitro. As to conditions: human, Caco-2.
For the compound `CCC(=O)OC[C@H]1O[C@@](C#N)(c2ccc3c(N)ncnn23)[C@H](OC(=O)CC)[C@@H]1OC(=O)CC`, the Papp A→B was less than 0.1 ×10⁻⁶ cm/s.

System in another data set: not listed separately
Nature of the data set: in vitro. As to conditions: human, Caco-2. The source holds these as a separate data set.
In the case of `CCC(=O)OC[C@H]1O[C@@](C#N)(c2ccc3c(N)ncnn23)[C@H](OC(=O)CC)[C@@H]1OC(=O)CC`, the Papp B→A was determined as 0.26 ×10⁻⁶ cm/s.

System in the next data set: not listed separately
Nature of the data set: in vitro. The note with it: human, HEp-2 cells. This is another data set of the same source.
With `CC(C)(C)C(=O)SCCOP(=O)(OCCSC(=O)C(C)(C)C)OC[C@H]1O[C@@](C#N)(c2ccc3c(N)ncnn23)[C@H](O)[C@@H]1O`, the selectivity ratio turned out to be 58.

The same data set, now with this note: human, HEp-2 cells, Ratio CC50/EC50.
For the compound `C[C@H](NP(=O)(OC[C@H]1O[C@@](C#N)(c2ccc3c(N)ncnn23)[C@H](O)[C@@H]1O)Oc1ccccc1)C(=O)OC(C)(C)C` (stereo partly drawn), the selectivity ratio was greater than 22.
Same read-out and setting: with `C[C@H](NP(=O)(OC[C@H]1O[C@@](C#N)(c2ccc3c(N)ncnn23)[C@H](O)[C@@H]1O)Oc1ccccc1)C(=O)OCC(C)(C)C` (stereo partly drawn) the figure was 220; with `CCOC(=O)[C@H](C)NP(=O)(N[C@@H](C)C(=O)OCC)OC[C@H]1O[C@@](C#N)(c2ccc3c(N)ncnn23)[C@H](O)[C@@H]1O`, greater than 15; with `CCOC(=O)[C@H](C)NP(=O)(OC[C@H]1O[C@@](C#N)(c2ccc3c(N)ncnn23)[C@H](O)[C@@H]1O)Oc1ccccc1` (stereo partly drawn), greater than 243.
Take `CCC(CC)OC(=O)[C@H](C)NP(=O)(OC[C@H]1O[C@@](C#N)(c2ccc3c(N)ncnn23)[C@H](O)[C@@H]1O)Oc1ccccc1` (stereo partly drawn): the selectivity ratio is 323.
Same read-out and setting: with `CC(C)OC(=O)[C@H](C)NP(=O)(OC[C@H]1O[C@@](C#N)(c2ccc3c(N)ncnn23)[C@H](O)[C@@H]1O)Oc1ccccc1` (stereo partly drawn) the figure was greater than 277.
On the same count and under the same terms, with `C[C@H](NP(=O)(OC[C@H]1O[C@@](C#N)(c2ccc3c(N)ncnn23)[C@H](O)[C@@H]1O)Oc1ccccc1)C(=O)OC1CCC1` (stereo partly drawn) the figure was 453.

The next data set has as its system Human orthopneumovirus. As to the kind of experiment: microbe, parasite or virus in culture. As to conditions: human respiratory syncytial virus, A2, HEp-2, 96 h.
With `C[C@@]1(c2ccc3c(N)ncnn23)O[C@H](CO)[C@@H](O)[C@H]1O`, a half-maximal response (EC50) required 5500 nM.
Same read-out and setting: with `CCC(CC)COC(=O)[C@H](C)N[P@](=O)(OC[C@H]1O[C@@](C#N)(c2ccc3c(N)ncnn23)[C@H](O)[C@@H]1O)Oc1ccccc1` (stereo in doubt; 18j) the figure was 27 nM; with `C[C@H](NP(=O)(OC[C@H]1O[C@@](C#N)(c2ccc3c(N)ncnn23)[C@H](O)[C@@H]1O)Oc1ccccc1)C(=O)OC(C)(C)C` (stereo partly drawn), 4500 nM.
Same read-out and setting: with `C[C@H](NP(=O)(OC[C@H]1O[C@@](C#N)(c2ccc3c(N)ncnn23)[C@H](O)[C@@H]1O)Oc1ccccc1)C(=O)OCC(C)(C)C` (stereo partly drawn) the figure was 50 nM; with `Nc1ncnn2c([C@@H]3O[C@H](CO)[C@@H](O)[C@H]3O)ccc12`, greater than 50000 nM.
On the same count and under the same terms, with `CCOC(=O)[C@H](C)NP(=O)(N[C@@H](C)C(=O)OCC)OC[C@H]1O[C@@](C#N)(c2ccc3c(N)ncnn23)[C@H](O)[C@@H]1O` the figure was 6480 nM; with `CCC(=O)OC[C@H]1O[C@@](C#N)(c2ccc3c(N)ncnn23)[C@H](OC(=O)CC)[C@@H]1OC(=O)CC`, 430 nM; with `CC(C)(C)C(=O)SCCOP(=O)(OCCSC(=O)C(C)(C)C)OC[C@H]1O[C@@](C#N)(c2ccc3c(N)ncnn23)[C@H](O)[C@@H]1O`, 150 nM.
Turning to `CCOC(=O)[C@H](C)NP(=O)(OC[C@H]1O[C@@](C#N)(c2ccc3c(N)ncnn23)[C@H](O)[C@@H]1O)Oc1ccccc1` (stereo partly drawn), the midpoint of the response, the EC50, lay at 300 nM.
On to `CCC(CC)OC(=O)[C@H](C)NP(=O)(OC[C@H]1O[C@@](C#N)(c2ccc3c(N)ncnn23)[C@H](O)[C@@H]1O)Oc1ccccc1` (stereo partly drawn), for which the EC50 came to 310 nM. The EC50 values of the last two compounds are within 1.5-fold of each other.
Consider `CC(C)OC(=O)[C@H](C)NP(=O)(OC[C@H]1O[C@@](C#N)(c2ccc3c(N)ncnn23)[C@H](O)[C@@H]1O)Oc1ccccc1` (stereo partly drawn), for which the EC50 amounted to 360 nM. This EC50 and that of the compound before are within 1.5-fold of each other.
`C[C@H](NP(=O)(OC[C@H]1O[C@@](C#N)(c2ccc3c(N)ncnn23)[C@H](O)[C@@H]1O)Oc1ccccc1)C(=O)OC1CCC1` (stereo partly drawn) had an EC50 of 75 nM.
Still for that read-out and setting: with `C#C[C@@]1(c2ccc3c(N)ncnn23)O[C@H](CO)[C@@H](O)[C@H]1O` the figure was 34000 nM.

The subject of a further data set is Hepatitis C virus. As to the kind of experiment: microbe, parasite or virus in culture. The note with it: subtype 1b, Huh-7, 72 h.
Regarding `Nc1ncnn2c([C@@H]3O[C@H](CO)[C@@H](O)[C@H]3O)ccc12`, the midpoint of the response, the EC50, lay at 3.5 nM.
The compound `C#C[C@@]1(c2ccc3c(N)ncnn23)O[C@H](CO)[C@@H](O)[C@H]1O` returned an EC50 greater than 89000 nM.

In another data set the test system is Respiratory syncytial virus. Nature of the data set: microbe, parasite or virus in culture. The note with it: human respiratory syncytial virus, Primary bronchial epithelial cell, 72 h.
As for `CCC(CC)COC(=O)[C@H](C)N[P@](=O)(OC[C@H]1O[C@@](C#N)(c2ccc3c(N)ncnn23)[C@H](O)[C@@H]1O)Oc1ccccc1` (stereo in doubt; 18j), the EC50 was 69 nM.
Still for that read-out and setting: the value for `C[C@H](NP(=O)(OC[C@H]1O[C@@](C#N)(c2ccc3c(N)ncnn23)[C@H](O)[C@@H]1O)Oc1ccccc1)C(=O)OC(C)(C)C` (stereo partly drawn) was greater than 5000 nM; that for `C[C@H](NP(=O)(OC[C@H]1O[C@@](C#N)(c2ccc3c(N)ncnn23)[C@H](O)[C@@H]1O)Oc1ccccc1)C(=O)OCC(C)(C)C` (stereo partly drawn) was 530 nM.
Still for that read-out and setting: with `CCOC(=O)[C@H](C)NP(=O)(OC[C@H]1O[C@@](C#N)(c2ccc3c(N)ncnn23)[C@H](O)[C@@H]1O)Oc1ccccc1` (stereo partly drawn) the figure was 850 nM; with `CCC(CC)OC(=O)[C@H](C)NP(=O)(OC[C@H]1O[C@@](C#N)(c2ccc3c(N)ncnn23)[C@H](O)[C@@H]1O)Oc1ccccc1` (stereo partly drawn), greater than 5000 nM.
In turn, `CC(C)OC(=O)[C@H](C)NP(=O)(OC[C@H]1O[C@@](C#N)(c2ccc3c(N)ncnn23)[C@H](O)[C@@H]1O)Oc1ccccc1` (stereo partly drawn) returned an EC50 of 2500 nM. This counts as single-digit micromolar.
Same read-out and setting: with `C[C@H](NP(=O)(OC[C@H]1O[C@@](C#N)(c2ccc3c(N)ncnn23)[C@H](O)[C@@H]1O)Oc1ccccc1)C(=O)OC1CCC1` (stereo partly drawn) the figure was 420 nM.

The values are drawn from ChEMBL document CHEMBL4823256 (J Med Chem, 2021).
